Experimental data: article PMC8587756, “Spirostanol Saponins from Flowers of Allium Porrum and Related Compounds Indicating Cytotoxic Activity and Affecting Nitric Oxide Production Inhibitory Effect in Peritoneal Macrophages” (Molecules, 2021)
Read-outs that look alike come from different tables or passages of the source.

Tests used:
[1] = system: NO production in mouse peritoneal cells; assay: Nitric oxide production induced by LPS and IFN-γ in mouse peritoneal cells (Griess reagent); format: cell-based; settings: for effect on production of NO (in words): LPS + IFN-γ, 24 h, Figure 3B; for inhibitory effects (in words): tested up to 25 µM; for IC50: LPS 0.1 ng/mL + IFN-γ 5 ng/mL, nitrites at 24 h, read-out: Nitric Oxide, IC50 (95% Limits of Confidence)
Procedure: Biological effects of studied compounds were evaluated in vitro, using mouse (C57BL6, Charles River Deutschland, Sulzfeld, Germany) peritoneal cells. Animals, killed by cervical dislocation, were i.p. injected with 8 mL of sterile saline. Pooled peritoneal cells collected from mice (n = 4–6 in individual experiments) were washed, re-suspended in culture medium, and seeded into 96-well round-bottom microplates (Costar, Corning, NY, USA) in 100-μL volumes, 2 × 10^5 cells/well. All experimental variants were run in duplicate. Complete RPMI-1640 culture medium (Sigma-Aldrich, St. Louis, MO, USA) contained 10% heat-inactivated foetal bovine serum, 2 mM L-glutamine, 50 μg/mL gentamicin, and 5 × 10^−5 M 2-mercaptoethanol (all Sigma-Aldrich). Cultures were maintained at 37 °C, 5% CO2 in humidified incubator (Sanyo Electric Biomedical, Osaka, Japan). The Institution Animal Ethics Committee (No. 13/2006) approved the animal welfare and all experimental procedures.
High output NO production was induced by mixture of lipopolysaccharide (LPS from E. coli 0111:B4, 0.1 ng/mL; Sigma) and murine recombinant interferon-γ (IFN-γ, 5 ng/mL; R&D Systems, Minneapolis, MN, USA) in mouse peritoneal cells. Tested compounds were applied concomitantly with these priming stimuli. The concentration of nitrites in supernatants of cells was assayed at the interval of 24 h. It was detected in individual, cell-free samples (50 μL) incubated 5 min at ambient temperature with an aliquot of a Griess reagent (1% sulphanilamide/0.1% naphtylendiamine/2.5% H3PO4). The absorbance at 540 nm was recorded using a microplate spectrophotometer (Tecan, Grödig, Austria). A nitrite calibration curve was used to convert absorbance to μM nitrite.
Estimates of 50% inhibitory concentrations of compounds (IC50, and CC50), correlation analysis, and graphical presentation of data were done using the Prism program (GraphPad Software, San Diego, CA, USA).

mouse peritoneal cells = assay: Cell viability / cytotoxicity, LDH assay in mouse peritoneal cells; format: cell-based
Procedure: (§1) Biological effects of studied compounds were evaluated in vitro, using mouse (C57BL6, Charles River Deutschland, Sulzfeld, Germany) peritoneal cells. Animals, killed by cervical dislocation, were i.p. injected with 8 mL of sterile saline. Pooled peritoneal cells collected from mice (n = 4–6 in individual experiments) were washed, re-suspended in culture medium, and seeded into 96-well round-bottom microplates (Costar, Corning, NY, USA) in 100-μL volumes, 2 × 10^5 cells/well. All experimental variants were run in duplicate. […] Cultures were maintained at 37 °C, 5% CO2 in humidified incubator (Sanyo Electric Biomedical, Osaka, Japan).
(§2) Viability of cells was analysed using the LDH (lactate dehydrogenase) assay. It is based on the determination of lactate dehydrogenase activity released from the cytosol of damaged cells into cell supernatant. The supernatants were harvested at the interval of 22 h of culture, diluted 1:1, and mixed with an aliquot of the LDH kit (Sigma-Aldrich, St. Louis, MO, USA). After 30-min incubation in the dark at ambient temperature, the reaction was stopped with 2 N HCl. […] Triton (1%) was used to induce 100% cell death. All control and experimental variants were run in quadruplicate.

[2] = as above; format: cell-based
Procedure: as §1, §2

[3] = system: murine leukemia cells P388; set-up: method as in PMID 9836426; settings: cancer murine leukemia cells P388; cited from earlier work
[4] = system: murine monocyte/macrophage cell line J-774; set-up: method as in PMID 9358643; settings: 24 h, MTT assay; cited from earlier work
[5] = system: RAW 246.7 macrophages and lymphocytes; set-up: method as in PMID 26329920; settings: different concentrations, 72 h, MTT assay; cited from earlier work
[6] = mouse peritoneal cells, LDH assay, 24 h, Figure 3A
[7] = C57BL6, mouse peritoneal cells, LDH assay, cultured 24 h (supernatants harvested at 22 h), read-out: Cytotoxicity CC50 (95% Limits of Confidence)

| Compound | effect on production of NO (in words) [1] | cytotoxic effects in model immune cells (in words) (mouse peritoneal cells) | concentration at onset of cell viability decline (mouse peritoneal cells; [6]) | CC50 at 22 h ([2]; C57BL6, mouse) [µM] | IC50 [1] [µM] | also measured |
| --- | --- | --- | --- | --- | --- | --- |
| C[C@@H]1CC[C@@]2(OC1)O[C@H]1CC3C4C[C@@H](O)C5C[C@@H](O[C@@H]6O[C@H](CO)[C@H](O[C@@H]7O[C@H](CO)[C@@H](O)[C@H](O[C@@H]8OC[C@@H](O)[C@H](O)[C@H]8O)[C@H]7O[C@@H]7O[C@H](CO)[C@@H](O)[C@H](O)[C@H]7O)[C@H](O)[C@H]6O)[C@H](O)C[C@]5(C)C4CC[C@]3(C)C1[C@@H]2C (stereo partly shown) [Compound 1, aginoside] | inhibited the production of NO | strong cytotoxic effects | approximately 4 µM | 11.1 |  | cytotoxicity IC50 [3]: 2.1 µg/mL |
| C[C@@H]1CC[C@@]2(OC1)O[C@H]1CC3C4CCC5C[C@@H](O[C@@H]6O[C@H](CO)[C@H](O[C@@H]7O[C@H](CO)[C@@H](O)[C@H](O[C@@H]8OC[C@@H](O)[C@H](O)[C@H]8O)[C@H]7O[C@@H]7O[C@H](CO)[C@@H](O)[C@H](O)[C@H]7O)[C@H](O)[C@H]6O)[C@H](O)C[C@]5(C)C4CC[C@]3(C)C1[C@@H]2C (stereo partly shown) [Compound 2, 6-deoxy-aginoside] | inhibited the production of NO | strong cytotoxic effects | approximately 4 µM | 5.7 |  |  |
| CC1CCC2(OC1)OC1CC3C4CC(O)C5CC(OC6OC(CO)C(OC7OC(CO)C(O)C(OC8OCC(O)C(O)C8O)C7OC7OC(CO)C(O)C(OC8OC(CO)C(O)C(O)C8O)C7O)C(O)C6O)C(O)CC5(C)C4CCC3(C)C1C2C (stereo not shown) [Compound 3] | inhibited the production of NO | strong cytotoxic effects | approximately 4 µM | 7.21 |  |  |
| CC1CC[C@@]2(OC1)O[C@H]1C[C@H]3[C@@H]4C[C@@H](O)C5C[C@@H](O)[C@H](O)C[C@]5(C)[C@H]4CC[C@]3(C)[C@H]1[C@@H]2C (stereo partly drawn) [Compound 4, spirostan-2α, 3β, 6β–triol] |  |  |  | > 100 |  | cytotoxicity (in words) [4]: did not show cytotoxicity; inhibitory effects (in words) [1]: devoid of any inhibitory effects |
| C[C@@H]1CC[C@@]2(OC1)O[C@H]1[C@@H](O)[C@H]3[C@@H]4CC[C@H]5C[C@@H](O[C@@H]6O[C@H](CO)[C@H](O[C@@H]7O[C@H](CO)[C@@H](O)[C@H](O[C@@H]8OC[C@@H](O)[C@H](O)[C@H]8O)[C@H]7O[C@@H]7O[C@H](CO)[C@H](O)[C@H](O[C@@H]8O[C@H](CO)[C@@H](O)[C@H](O)[C@H]8O)[C@H]7O)[C@H](O)[C@H]6O)[C@H](O)C[C@]5(C)[C@H]4CC[C@]3(C)[C@H]1[C@@H]2C [Compound 5, digitonin, reference compound] | inhibited the production of NO |  | approximately 4 µM |  | 5.52 | cytotoxic effects in model immune cells (in words) (mouse peritoneal cells; [6]): strong cytotoxic effects; CC50 at 22 h [2, 7]: 5.83 µM |
| C[C@@H]1CC[C@@]2(OC1)O[C@H]1C[C@H]3[C@@H]4CC=C5C[C@@H](O)CC[C@]5(C)[C@H]4CC[C@]3(C)[C@H]1[C@@H]2C [Compound 7, diosgenin] |  |  |  |  | > 100 | inhibitory effects (in words) [1]: devoid of any inhibitory effects; cytotoxicity (in words) [5]: No changes in cytotoxicity; CC50 at 22 h [2, 7]: > 100 µM |
| C[C@@H]1CC[C@@]2(OC1)O[C@H]1C[C@H]3[C@@H]4CC=C5C[C@@H](O[C@@H]6O[C@H](CO)[C@@H](O[C@@H]7O[C@@H](C)[C@H](O)[C@@H](O)[C@H]7O)[C@H](O)[C@H]6O[C@@H]6O[C@@H](C)[C@H](O)[C@@H](O)[C@H]6O)CC[C@]5(C)[C@H]4CC[C@]3(C)[C@H]1[C@@H]2C [dioscin, reference compound] |  |  |  |  |  | cytotoxicity IC50 [3]: 0.092 µg/mL |
| tomatonin [Compound 6, reference compound] | inhibited the production of NO |  | approximately 4 µM |  | 7.19 | cytotoxic effects in model immune cells (in words) (mouse peritoneal cells; [6]): strong cytotoxic effects; CC50 (mouse peritoneal cells; mouse peritoneal cells, LDH assay, cultured 24 h (supernatants harvested at 22 h), read-out: Cytotoxicity CC50 (95% Limits of Confidence)): 9.9 µM |
